Test results from patent US11344507B2, “Topical compositions containing low molecular weight chitosan derivatives” (ALUMEND, LLC, priority 2019, dated 2022).

Experiments:
[1] = tested on: IL-1α secretion by three-dimensional human epidermal equivalents (EPI-200); details: 24 h
Procedure: Test materials (30 μl) were topically applied onto three-dimensional human epidermal equivalents (EPI-200 from MatTek, Ashland, Mass.), n=3 tissues per treatment group.

[2] = tested on: IL-1α secretion by three-dimensional human epidermal equivalents (EPI-200)
[3] = tested on: three-dimensional human epidermal equivalents (EPI-200); test: In vitro Skin Irritation Test, SDS-induced irritation: MTT tissue viability; details: for Mean of viability (%): MTT after 42 hr post-exposure

| IL-1α (pg/mL) = Average IL1α (pg/mL) treated tissue minus Average IL1α (pg/mL) negative control [1] | Structure (SMILES) | irritant classification by IL-1α results [2] | Mean of viability (%) ([3]; 0.2% SDS, alone or applied after dried 1% OsC) | Mean of viability (%) ([3]; 0.4% SDS, alone or applied after dried 1% OsC) | Mean of viability (%) ([3]; 0.6% SDS, alone or applied after dried 1% OsC) | irritant classification by MTT assay (cut-off 50% viability) ([3]; 0.6% SDS, alone or combined with OsC) | Mean of viability (%) ([3]; test agent alone (OsC 1%; PC = 5% SDS)) |
| --- | --- | --- | --- | --- | --- | --- | --- |
| 98.301 pg/mL | CC1=C(/C=C/C(C)=C/C=C/C(C)=C/CO)C(C)(C)CCC1 [Retinol, retinol] |  |  |  |  |  |  |
|  | CCCCCCCCCCCCOS(=O)(=O)[O-].[Na+] [SDS, sodium dodecyl sulfate] | irritant | 74.75% | 73.04% | 19.21% | irritant | 3.12% |
